According to US10792289B2 (Horizon Orphan LLC, priority 2009, dated 2020):
≈ marks a conversion by molar mass, not a printed value. Like-named read-outs stand apart in the source and are kept apart here.

Legend:
B. cepacia = assay: Levofloxacin MIC against B. cepacia; type: cell-based; settings: Burkholderia cepacia
S. aureus = assay: Phase 2 study: presumptive S. aureus density in sputum; type: in vivo, human
Description: The following dosage regimens (as nebulizer loaded doses) were evaluated: 120 mg QD (daily); 240 mg QD (daily); and 240 mg BID (twice daily).
Patients were assessed on Day 1, 7, 14, and 28, and then up to 28 days after completion of study drug, namely, Days 42 and 56. The end of the study was defined as the last visit of the last patient.

[1] = EE population, Combined 240 mg QD and BID
[2] = EE population, Combined Levofloxacin
[3] = Table 21 (EE population), 120 mg QD
[4] = Table 21 (EE population), 240 mg BID
[5] = Table 21 (EE population), 240 mg QD
[6] = Table 21 (EE population), Combined 240 mg QD and BID
[7] = Table 21 (EE population), Combined Levofloxacin

## C[C@H]1COc2c(N3CCN(C)CC3)c(F)cc3c(=O)c(C(=O)O)cn1c23 [Levofloxacin, levofloxacin]
B. cepacia
  MIC: > 128 µg/mL
B. cepacia; five strains tested in mouse model, read-out: MICs of five B. cepacia strains
  MIC: 0.25 to 8 µg/mL (≈ 0.692 to 22.1 µM)
B. cepacia; strain BC1012, read-out: MIC
  MIC: 4 µg/mL (≈ 11.1 µM)
B. cepacia; strain BC1013, read-out: MIC
  MIC: 0.25 µg/mL (≈ 0.692 µM)
B. cepacia; strain BC1014, read-out: MIC
  MIC: 1 µg/mL (≈ 2.77 µM)
B. cepacia; strain BC1020, read-out: MIC
  MIC: 8 µg/mL (≈ 22.1 µM)
B. cepacia; strain BC1021, read-out: MIC
  MIC: 8 µg/mL (≈ 22.1 µM)
S. aureus; EE population, 120 mg QD
  presumptive S. aureus density, Change from Baseline to Day 7, Mean: −1.19 log10 CFU/g sputum
  presumptive S. aureus density, Day 1, Mean: 5.72 log10 CFU/g sputum
  presumptive S. aureus density, Day 7, Mean: 4.53 log10 CFU/g sputum
  presumptive S. aureus density, Day 14, Mean: 5.30 log10 CFU/g sputum
  presumptive S. aureus density, Day 28, Mean: 5.31 log10 CFU/g sputum
S. aureus; EE population, 120 mg QD, Day 14
  presumptive S. aureus density, Change from Baseline to Day 28, Mean: −0.42 log10 CFU/g sputum
S. aureus; EE population, 120 mg QD, Day 28
  presumptive S. aureus density, Change from Baseline to Day 28, Mean: −0.41 log10 CFU/g sputum
S. aureus; EE population, 240 mg BID
  presumptive S. aureus density, Change from Baseline to Day 7, Mean: −0.72 log10 CFU/g sputum
  presumptive S. aureus density, Day 1, Mean: 5.68 log10 CFU/g sputum
  presumptive S. aureus density, Day 7, Mean: 4.96 log10 CFU/g sputum
  presumptive S. aureus density, Day 14, Mean: 4.70 log10 CFU/g sputum
  presumptive S. aureus density, Day 28, Mean: 5.42 log10 CFU/g sputum
S. aureus; EE population, 240 mg BID, Day 14
  presumptive S. aureus density, Change from Baseline to Day 28, Mean: −0.98 log10 CFU/g sputum
S. aureus; EE population, 240 mg BID, Day 28
  presumptive S. aureus density, Change from Baseline to Day 28, Mean: −0.38 log10 CFU/g sputum
S. aureus; EE population, 240 mg QD
  presumptive S. aureus density, Change from Baseline to Day 7, Mean: −0.30 log10 CFU/g sputum
  presumptive S. aureus density, Day 1, Mean: 5.64 log10 CFU/g sputum
  presumptive S. aureus density, Day 7, Mean: 5.34 log10 CFU/g sputum
  presumptive S. aureus density, Day 14, Mean: 5.14 log10 CFU/g sputum
  presumptive S. aureus density, Day 28, Mean: 4.56 log10 CFU/g sputum
S. aureus; EE population, 240 mg QD, Day 14
  presumptive S. aureus density, Change from Baseline to Day 28, Mean: −0.50 log10 CFU/g sputum
S. aureus; EE population, 240 mg QD, Day 28
  presumptive S. aureus density, Change from Baseline to Day 28, Mean: −1.08 log10 CFU/g sputum
S. aureus; [1]
  presumptive S. aureus density, Change from Baseline to Day 7, Mean: −0.47 log10 CFU/g sputum
  presumptive S. aureus density, Day 1, Mean: 5.65 log10 CFU/g sputum
  presumptive S. aureus density, Day 7, Mean: 5.18 log10 CFU/g sputum
  presumptive S. aureus density, Day 14, Mean: 4.96 log10 CFU/g sputum
  presumptive S. aureus density, Day 28, Mean: 4.89 log10 CFU/g sputum
S. aureus; EE population, Combined 240 mg QD and BID, Day 14
  presumptive S. aureus density, Change from Baseline to Day 28, Mean: −0.69 log10 CFU/g sputum
S. aureus; EE population, Combined 240 mg QD and BID, Day 28
  presumptive S. aureus density, Change from Baseline to Day 28, Mean: −0.81 log10 CFU/g sputum
S. aureus; [2]
  presumptive S. aureus density, Change from Baseline to Day 7, Mean: −0.71 log10 CFU/g sputum
  presumptive S. aureus density, Day 1, Mean: 5.68 log10 CFU/g sputum
  presumptive S. aureus density, Day 7, Mean: 4.97 log10 CFU/g sputum
  presumptive S. aureus density, Day 14, Mean: 5.08 log10 CFU/g sputum
  presumptive S. aureus density, Day 28, Mean: 5.04 log10 CFU/g sputum
S. aureus; EE population, Combined Levofloxacin, Day 14
  presumptive S. aureus density, Change from Baseline to Day 28, Mean: −0.60 log10 CFU/g sputum
S. aureus; EE population, Combined Levofloxacin, Day 28
  presumptive S. aureus density, Change from Baseline to Day 28, Mean: −0.67 log10 CFU/g sputum
S. aureus; [3]
  presumptive S. aureus density, Change from Baseline to Day 7, Mean: −1.14 log10 CFU/g sputum
  presumptive S. aureus density, Day 1, Mean: 5.89 log10 CFU/g sputum
  presumptive S. aureus density, Day 7, Mean: 4.75 log10 CFU/g sputum
  presumptive S. aureus density, Day 14, Mean: 5.48 log10 CFU/g sputum
  presumptive S. aureus density, Day 28, Mean: 5.49 log10 CFU/g sputum
S. aureus; Table 21 (EE population), 120 mg QD, Day 14
  presumptive S. aureus density, Change from Baseline to Day 28, Mean: −0.41 log10 CFU/g sputum
S. aureus; Table 21 (EE population), 120 mg QD, Day 28
  presumptive S. aureus density, Change from Baseline to Day 28, Mean: −0.41 log10 CFU/g sputum
S. aureus; [4]
  presumptive S. aureus density, Change from Baseline to Day 7, Mean: −0.66 log10 CFU/g sputum
  presumptive S. aureus density, Day 1, Mean: 5.51 log10 CFU/g sputum
  presumptive S. aureus density, Day 7, Mean: 4.65 log10 CFU/g sputum
  presumptive S. aureus density, Day 14, Mean: 4.32 log10 CFU/g sputum
  presumptive S. aureus density, Day 28, Mean: 4.95 log10 CFU/g sputum
S. aureus; Table 21 (EE population), 240 mg BID, Day 14
  presumptive S. aureus density, Change from Baseline to Day 28, Mean: −0.99 log10 CFU/g sputum
S. aureus; Table 21 (EE population), 240 mg BID, Day 28
  presumptive S. aureus density, Change from Baseline to Day 28, Mean: −0.44 log10 CFU/g sputum
S. aureus; [5]
  presumptive S. aureus density, Change from Baseline to Day 7, Mean: −0.40 log10 CFU/g sputum
  presumptive S. aureus density, Day 1, Mean: 5.63 log10 CFU/g sputum
  presumptive S. aureus density, Day 7, Mean: 5.23 log10 CFU/g sputum
  presumptive S. aureus density, Day 14, Mean: 4.97 log10 CFU/g sputum
  presumptive S. aureus density, Day 28, Mean: 4.48 log10 CFU/g sputum
S. aureus; Table 21 (EE population), 240 mg QD, Day 14
  presumptive S. aureus density, Change from Baseline to Day 28, Mean: −0.66 log10 CFU/g sputum
S. aureus; Table 21 (EE population), 240 mg QD, Day 28
  presumptive S. aureus density, Change from Baseline to Day 28, Mean: −1.15 log10 CFU/g sputum
S. aureus; [6]
  presumptive S. aureus density, Change from Baseline to Day 7, Mean: −0.51 log10 CFU/g sputum
  presumptive S. aureus density, Day 1, Mean: 5.58 log10 CFU/g sputum
  presumptive S. aureus density, Day 7, Mean: 4.99 log10 CFU/g sputum
  presumptive S. aureus density, Day 14, Mean: 4.70 log10 CFU/g sputum
  presumptive S. aureus density, Day 28, Mean: 4.66 log10 CFU/g sputum
S. aureus; Table 21 (EE population), Combined 240 mg QD and BID, Day 14
  presumptive S. aureus density, Change from Baseline to Day 28, Mean: −0.80 log10 CFU/g sputum
S. aureus; Table 21 (EE population), Combined 240 mg QD and BID, Day 28
  presumptive S. aureus density, Change from Baseline to Day 28, Mean: −0.87 log10 CFU/g sputum
S. aureus; [7]
  presumptive S. aureus density, Change from Baseline to Day 7, Mean: −0.71 log10 CFU/g sputum
  presumptive S. aureus density, Day 1, Mean: 5.68 log10 CFU/g sputum
  presumptive S. aureus density, Day 7, Mean: 4.91 log10 CFU/g sputum
  presumptive S. aureus density, Day 14, Mean: 4.95 log10 CFU/g sputum
  presumptive S. aureus density, Day 28, Mean: 4.93 log10 CFU/g sputum
S. aureus; Table 21 (EE population), Combined Levofloxacin, Day 14
  presumptive S. aureus density, Change from Baseline to Day 28, Mean: −0.68 log10 CFU/g sputum
S. aureus; Table 21 (EE population), Combined Levofloxacin, Day 28
  presumptive S. aureus density, Change from Baseline to Day 28, Mean: −0.72 log10 CFU/g sputum
